Results on 8 compounds are retold here after patent US5573772A, “Methods for protecting tissues and organs from ischemic damage” (priority 1994, dated 1996).

SMILES strings stand for the structures.

One series concerns rabbit heart. Kind of series: Infarct size in isolated rabbit hearts, A3-receptor mediation of preconditioning, Example 3. To be noted: BW A1433 200 nM + PC. How it is done:
New Zealand white rabbits of either sex, between 1.4-2.4 kg, were anesthetized with intravenous sodium pentobarbital (30 mg/kg). The neck was opened and a tracheotomy was performed. The rabbits were ventilated with 100% oxygen via a positive pressure respirator (MD industries, Mobile, Ala.). Ventilation rate was 30-35 breaths per minute, and tidal volume was approximately 15 ml. A left thoracotomy was performed in the fourth intercostal space and pericardium was opened to expose the heart. A 2-0 silk suture with an RB taper needle was passed around a branch of the left coronary artery, and the end of the silk were threaded through a small vinyl tube to form a snare. The heads were quickly excised and mounted on a Langendorff apparatus and perfused at constant pressure with Krebs buffer containing (in mM) 118.5 NaCl, 4.7 KCl, 1.2 MgSO4, 1.2 K2 PO4, 24.3 NaHCO3, 2.5 CaCl2 and 10 glucose. […] The temperature of the perfusate was maintained at 37° C. The perfusion pressure was kept at 75 mm Hg. Pacing electrodes were placed on the right atrium and all hearts were paced at 200 beats/minute with pulses of 5 volts and 4 msec duration to keep the heart rate constant. A fluid-filled latex balloon connected to a transducer via PE240 tubing was inserted into the left ventricle. Balloon volume was adjusted to set the left ventricular diastolic pressure at 10 mm Hg at the beginning of the experiment. Total coronary artery flow was measured by timed collection of buffer from the chamber into a graduated cylinder. Regional ischemia was effected by pulling the snare tight and clamping the tube with a hemostat. Global ischemia was performed by clamping the inflow tubing of the Langendorff apparatus. Reperfusion was achieved by releasing the restriction. All hearts were allowed to equilibrate for 20 minutes before the experiments were started. Heart rate (HR), coronary flow (CF) and left ventricular developed pressure (LVDP) were recorded at the point just before and at the end of each treatment with the pacing momentarily turned off. […] The hearts were removed from the Langendorff apparatus, weighed and then frozen. The hearts were cut into 2 mm transverse slices. The slices were thawed and incubated in 1% triphenyl tetrazolium chloride (TTC) in pH 7.4 buffer for 20 minutes at 37° C. TTC reacts with NADH and dehydrogenase enzymes and stains all tissue still having them to a deep red color. […] After staining, the area of infarcted tissue (TTC negative tissue) and the risk zone (area lacking fluorescence under ultraviolet light) in each slice were traced. The area of infarct and risk zone were determined by planimetry of the tracing. The volume of infarcted myocardium and myocardium at risk was then calculated by multiplying the planimetered areas by the slice thickness. The methods utilized in this example are identical to those described in Example 1. All hearts received 30 minutes of regional ischemia as described in Example 1. The control group (n=8) hearts received only 30 minutes of ischemia. Preconditioned (PC) hearts (n=10) received 5 minutes of global ischemia and 10 minutes of reperfusion prior to the regional ischemia. Adenosine (ADO) treated hearts (n=6) received 10 μM adenosine for 5 minutes prior to regional ischemia. APNEA treated hearts (n=6) received 65 μM APNEA for 5 minutes prior to regional ischemia. In groups receiving the nonselective adenosine blocker, 8-SPT, the blocker was included in the perfusate for 15 minutes at 100 μM starting 5 minutes before the exposure of ADO (ADO-SPT group, n=6), or APNEA (APNEA-SPT group, n=6 ) or 5 minutes before and after 5 minutes of preconditioning ischemia (PC-SPT group, n=5). […] For the PC-BW group (n=5), the A3-receptor antagonist, BW A1433, [Linden J, et al., Molecular Pharmacology 44:524-532 (1993)], was administered at a dose of 200 nM in the perfusate for 5 minutes before and 5 minutes after PC ischemia.

The test system of a further series is heart. As to conditions: intercoronarily infused before an ischemic insult; cited from earlier work.
In series [1] the test system is human A3 adenosine receptor. Kind of series: A3 adenosine receptor binding assay, [125I]-ABA displacement on CHO cell membranes, Example 5. Here is the method:
Chinese hamster ovary (CHO) cells, obtained from ATCC, expressing the cloned human A3 adenosine receptor [for example, 5 L cells or a mutagenized A3 adenosine receptor (e.g., A3K2)] were grown under standard cell culture conditions and harvested by mechanical agitation in cell culture medium. All further procedures were carried out at 4° C. The cells were disrupted using a Polytron and the resulting cell membranes collected by centrifugation at 50,000 g for 20 minutes. The pellet was suspended in 10 mM Tris-HCl buffer, pH 7.4, (10^6 cells/mL) using the Polytron and centrifuged at 50,000 g for 20 minutes. […]
For the binding assay, 50 μg of membrane protein were incubated with 0.4 nM [^125 l]-aminobenzyladenosine (ABA, custom synthesized by DuPont:NEN; specific activity=2200 Ci/mmol) in 50 mM Tris-HCl buffer, pH 7.4, containing 5 mM MgCl2 and 1 unit/mL adenosine deaminase in a total volume of 100 μL for 2 hours at room temperature. Membranes containing bound radioactivity were collected on Whatman GF/B filters using a Brandel Cell Harvester and washed 3 times with ice-cold 50 mM Tris-HCl buffer, pH 7.4. Radioactivity was quantified using a Beckman gamma counter. […] The specific binding was then calculated by subtracting this non-specific binding value from the total binding.

Series [2] deals with A3 adenosine receptor (R226). To be noted: cited from earlier work.
A further series relates to intact rabbit. Kind of series: Bradycardia and mean arterial pressure in the anesthetized rabbit, Example 2. To be noted: I-APNEA 0.25 mg/kg.
Series [3] relates to intact, blood perfused rabbit heart. Kind of series: Infarct size in the intact anesthetized rabbit, 30 min ischemia and reperfusion, Example 2. As to conditions: I-APNEA 0.25 mg/kg iv; control 52±4.3%, PC 9±4.1%.
Protocol: In this study, the effect of the adenosine receptor agonist, I-APNEA, on infarct size in the anesthetized rabbit was compared to the protection observed with ischemic preconditioning (PC).
New Zealand White rabbits (1.5-2.5 kg) were anaesthetized with pentobarbital sodium (40 mg/kg) administered via a catheter in a marginal ear vein. The animals were intubated with a pediatric cuffed endotracheal tube and ventilated with room air using a positive pressure respirator (Harvard Apparatus, Natick, Mass.). The heart was exposed in situ via an incision between the left 4th and 5th ribs, and a branch of the left coronary artery was isolated, using a 3-0 silk suture on RB-taper needle, for later ligation to induce 30 minutes of ischemia followed by 180 minutes of reperfusion. A catheter inserted into a femoral vein was used for administration of fluids and drugs. Infarct size was measured using the method described in the section entitled "Measurement of Infarct Size and Risk Area" in Example 1.
All animals received 30 minutes of regional ischemia, induced by tightening the suture placed around the coronary artery. Following the 30 minutes of ischemia, the suture was loosened, and reperfusion was allowed for the ensuing 180 minutes. Control animals received only the 30 minutes of ischemia and 180 minutes of reperfusion (n=9). Ischemic preconditioning (PC) was induced by 5 minutes of occlusion of the coronary artery followed by 10 minutes of reperfusion before the 30 minutes of occlusion (n=7). In a separate group of rabbits, I-APNEA was delivered intravenously as a slow bolus injection (0.25 mg/kg), beginning 15 minutes prior to the 30 minutes occlusion (n=8). In two additional groups of rabbits, the effects of the A1-selective adenosine receptor blocker, DPCPX, were tested against the effects of PC (n=6) and I-APNEA (n=8). […] At the end of 120 minutes of reperfusion, all animals were killed by an overdose of pentobarbital, and risk area and infarct size were measured.

As to `CCCn1c(=O)c2[nH]c(-c3ccc(/C=C/C(=O)O)cc3)nc2n(CCC)c1=O` [BW A1433], the “Infarct size (of the risk area)” value in the series with rabbit heart was 26.2±3.2%.

On to `OC[C@H]1O[C@@H](n2cnc3c(NC4CCCC4)nc(Cl)nc32)[C@H](O)[C@@H]1O` [CCPA, 2-chloro-N^6-cyclopentyladenosine], for which the Ischemic preconditioning effects result with heart is listed as “beneficial ischemic preconditioning effects”.

For the compound `Nc1ccc(CNc2ncnc3c2ncn3[C@@H]2O[C@H](CO)[C@@H](O)[C@H]2O)cc1I` [I-ABA, N^6-(4-amino-3-iodobenzyl)adenosine], the concentration for half-maximal inhibition (IC50) in series [1] (A3K2 line cell membranes, 0.4 nM [125I]-ABA, read-out: IC50, displacement of [125I]ABA specific binding) was 2 nM.

Regarding `Nc1ccc(CCNc2ncnc3c2ncn3[C@@H]2O[C@H](CO)[C@@H](O)[C@H]2O)cc1I` [I-APNEA, N^6-2-(4-amino-3-iodophenyl)ethyladenosine], the “Binding to R226” value in series [2] is “bind”. Also, the Mean arterial pressure entry with intact rabbit was “fall in mean arterial pressure”. The compound further registered an Infarct size in series [3] of 17±3.8%.

For `CCNC(=O)[C@H]1O[C@@H](n2cnc3c(N)ncnc32)[C@H](O)[C@@H]1O` [NECA, 5'-N-ethylcarboxamidoadenosine], in series [2], the “Binding to R226” value is given as “bind”.

In the case of `C[C@H](Cc1ccccc1)Nc1ncnc2c1ncn2[C@@H]1O[C@H](CO)[C@@H](O)[C@H]1O` [R-PIA, (R)-N-(2-phenyl-1-methylethyl)adenosine], the Ischemic preconditioning effects entry in the series on heart was “beneficial ischemic preconditioning effects”.

As to `CCCn1c(=O)c2[nH]c(-c3ccc(OCC(=O)NCCN)cc3)nc2n(CCC)c1=O` [XAC], in series [2], the “Binding to R226” value is recorded as “not to bind”.

With `Nc1ccc(CNc2ncnc3c2ncn3[C@@H]2O[C@H](CO)[C@@H](O)[C@H]2O)cc1[125I]` [[^125 l]ABA, [^125 l]-aminobenzyladenosine], in series [1] (radiolabel, A3K2 cells), the “Binding to human A3 receptors, affinity” value was “high affinity”.
